Calls of active or inactive are those of the source. The calls are words filed in the database; no cut-off is given here.
Tests used:
[1] = test system: Rattus norvegicus; format: functional, Zucker
[2] = molecular target: Oxysterols receptor LXR-beta (Homo sapiens, UniProt P55055); assay: Antagonist activity at recombinant GST-tagged human LXRbeta LBD assessed as inhibition of TO901317-induced fluorescein-labeled coactivator peptide recruitment preincubated with enzyme followed by coactivator addition by LanthaScreen TR-FRET assay
Sequence of Oxysterols receptor LXR-beta (P55055 whole entry, the tested form may be a part): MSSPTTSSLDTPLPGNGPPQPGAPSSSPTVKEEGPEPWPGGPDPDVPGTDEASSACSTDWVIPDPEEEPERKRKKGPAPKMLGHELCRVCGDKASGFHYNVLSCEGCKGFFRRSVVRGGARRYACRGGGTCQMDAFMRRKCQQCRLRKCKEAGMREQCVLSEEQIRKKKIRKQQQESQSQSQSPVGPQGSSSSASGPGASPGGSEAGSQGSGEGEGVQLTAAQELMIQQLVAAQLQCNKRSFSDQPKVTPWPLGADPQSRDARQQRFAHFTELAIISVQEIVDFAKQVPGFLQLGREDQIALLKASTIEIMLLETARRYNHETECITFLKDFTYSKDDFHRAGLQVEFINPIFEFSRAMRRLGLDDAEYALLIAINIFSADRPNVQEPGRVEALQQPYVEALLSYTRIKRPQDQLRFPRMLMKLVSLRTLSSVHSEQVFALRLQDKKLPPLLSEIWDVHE

[3] = molecular target: Steroid hormone receptor ERR2 (Homo sapiens, UniProt O95718); assay: Antagonist activity at recombinant GST-tagged human ERRbeta LBD assessed as inhibition of fluorescein-labeled coactivator peptide recruitment preincubated with enzyme followed by coactivator addition by LanthaScreen TR-FRET assay
Sequence of Steroid hormone receptor ERR2 (O95718 whole entry, the tested form may be a part): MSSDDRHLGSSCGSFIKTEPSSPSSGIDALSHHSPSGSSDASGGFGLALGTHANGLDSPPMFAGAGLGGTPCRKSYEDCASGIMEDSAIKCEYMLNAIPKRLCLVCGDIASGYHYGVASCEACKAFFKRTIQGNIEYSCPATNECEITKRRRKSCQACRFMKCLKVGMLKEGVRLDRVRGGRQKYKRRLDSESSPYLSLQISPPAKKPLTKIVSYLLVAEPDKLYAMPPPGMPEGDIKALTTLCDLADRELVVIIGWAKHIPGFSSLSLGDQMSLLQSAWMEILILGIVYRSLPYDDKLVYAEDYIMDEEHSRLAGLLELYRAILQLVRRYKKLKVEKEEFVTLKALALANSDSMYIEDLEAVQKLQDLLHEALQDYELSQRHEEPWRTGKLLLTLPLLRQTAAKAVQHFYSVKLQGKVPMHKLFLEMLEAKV

[4] = Half life in CD-1 mouse at 5 mg/kg, iv by LC-MS analysis; format: ADME, organism-based; details: in vivo
[5] = Cmax in Sprague-Dawley rat at 10 mg/kg administered via oral gavage by LC-MS analysis; format: ADME, organism-based; parameters: dose 10 mg/kg, route oral; details: in vivo
[6] = AUC (0 to 24 hrs) in CD-1 mouse at 20 mg/kg administered via oral gavage by LC-MS analysis; format: ADME, organism-based; parameters: dose 20 mg/kg, time < 24 hr, route oral; details: in vivo
[7] = test system: Rattus norvegicus; assay: Antidiabetic activity in Zucker rat sub-chronic fa/fa prediabetic model assessed as blood glucose AUC (0 to 120 min) at 50 mg/kg, po qd for 31 days measured on day 29 post dose by OGTT (reference value: 41471 +/- 2451 mg.min/dL); format: functional
[8] = Cmax in Zucker rat sub-chronic fa/fa prediabetic model at 10 mg/kg, po qd measured on day 1 post dose; format: ADME, organism-based; parameters: dose 10 mg/kg, route oral; details: in vivo
[9] = Cmax in Zucker rat sub-chronic fa/fa prediabetic model at 50 mg/kg, po qd measured on day 1 post dose; format: ADME, organism-based; parameters: dose 50 mg/kg, route oral; details: in vivo
[10] = test system: Rattus norvegicus; assay: Toxicity in Zucker rat sub-chronic fa/fa prediabetic model assessed as body weight at 1 mg/kg, po qd for 29 days measured on day 29 post last dose (reference value: 533 +/- 10 g); format: organism-based; details: in vivo, 696 h
[11] = test system: Rattus norvegicus; assay: Toxicity in Zucker rat sub-chronic fa/fa prediabetic model assessed as body weight at 10 mg/kg, po qd for 29 days measured on day 29 post last dose (reference value: 533 +/- 10 g); format: organism-based; details: in vivo, 696 h
[12] = test system: Rattus norvegicus; assay: Toxicity in Zucker rat sub-chronic fa/fa prediabetic model assessed as liver weight at 3 mg/kg, po qd for 31 days measured on day 32 (reference value: 28 +/- 1.6 g); format: organism-based; details: in vivo, 744 h
[13] = test system: Rattus norvegicus; assay: Toxicity in Zucker rat sub-chronic fa/fa prediabetic model assessed as triglyceride level per gram liver at 10 mg/kg, po qd for 31 days measured on day 32 (reference value: 163.4 +/- 8.3 mg); format: organism-based; details: in vivo, 744 h
[14] = test system: Rattus norvegicus; assay: Toxicity in Zucker rat sub-chronic fa/fa prediabetic model assessed as insulin level per gram pancreas at 10 mg/kg, po qd for 31 days measured on day 32 (reference value: 55.2 +/- 5.5 ug); format: organism-based; details: in vivo, 744 h
[15] = test system: Rattus norvegicus; assay: Toxicity in Zucker rat sub-chronic fa/fa prediabetic model assessed as serum ALT level at 3 mg/kg, po qd for 31 days measured on day 32 (reference value: 151 +/- 23 U/L); format: organism-based; details: in vivo, 744 h
[16] = test system: Rattus norvegicus; assay: Toxicity in Zucker rat sub-chronic fa/fa prediabetic model assessed as serum AST level at 1 mg/kg, po qd for 31 days measured on day 32 (reference value: 187 +/- 37 U/L); format: organism-based; details: in vivo, 744 h
[17] = test system: Rattus norvegicus; assay: Antidiabetic activity in Zucker rat sub-chronic fa/fa prediabetic model assessed as serum adiponectin level at 3 mg/kg, po qd for 4 days by ELISA (reference value: 9.1%); format: functional
[18] = test system: Rattus norvegicus; format: functional, Zucker; remark: listed apart in the source
[19] = test system: Rattus norvegicus; assay: Antidiabetic activity in Zucker rat sub-chronic fa/fa prediabetic model assessed as increase in serum adiponectin level administered orally once daily for 4 days by ELISA; format: functional, organism-based
[20] = test system: Rattus norvegicus; format: functional, Zucker; remark: listed apart in the source
[21] = test system: Rattus norvegicus; assay: Antidiabetic activity in […] model assessed as HbA1C level at 50 mg/kg, po qd for 31 days measured on day 32 post dose (reference value: 5.9 +/- 0.18%); format: functional
[22] = test system: Rattus norvegicus; assay: Toxicity in […] model assessed as serum BUN level at 10 mg/kg, po qd for 31 days measured on day 32 (reference value: 28.3 +/- […]); format: organism-based; details: in vivo, 744 h
[23] = test system: Rattus norvegicus; assay: Toxicity in […] chronic ob/ob model assessed as decrease in epididymal white adipose tissue weight at administered po qd for 31 days measured on day 32; format: organism-based; details: in vivo, 744 h
[24] = test system: Rattus norvegicus; assay: Increase in ACADM mRNA expression in epididymal white adipose tissue of Zucker rat sub-chronic fa/fa prediabetic model at 10 mg/kg, po qd for 15 days by RT-PCR method; format: functional, organism-based
[25] = test system: Rattus norvegicus; assay: Effect on ECI2 gene expression in epididymal white adipose tissue of Zucker rat sub-chronic fa/fa prediabetic model at 10 mg/kg, po qd for 15 days by microarray analysis relative to control; format: functional
[26] = test system: Rattus norvegicus; assay: Effect on TNF gene expression in epididymal white adipose tissue of Zucker rat sub-chronic fa/fa prediabetic model at 10 mg/kg, po qd for 15 days by microarray analysis relative to control; format: functional
[27] = test system: Rattus norvegicus; assay: Effect on UGP2 gene expression in epididymal white adipose tissue of Zucker rat sub-chronic fa/fa prediabetic model at 10 mg/kg, po qd for 15 days by microarray analysis relative to control; format: functional
[28] = test system: Rattus norvegicus; assay: Effect on ADRA2C gene expression in epididymal white adipose tissue of Zucker rat sub-chronic fa/fa prediabetic model at 10 mg/kg, po qd for 15 days by microarray analysis relative to control; format: functional
[29] = test system: Rattus norvegicus; assay: Effect on LPIN2 gene expression in epididymal white adipose tissue of Zucker rat sub-chronic fa/fa prediabetic model at 10 mg/kg, po qd for 15 days by microarray analysis relative to control; format: functional
[30] = test system: Rattus norvegicus; assay: Effect on ECSIT gene expression in epididymal white adipose tissue of Zucker rat sub-chronic fa/fa prediabetic model at 10 mg/kg, po qd for 15 days by microarray analysis relative to control; format: functional
[31] = test system: Rattus norvegicus; assay: Effect on IL1RN gene expression in epididymal white adipose tissue of Zucker rat sub-chronic fa/fa prediabetic model at 10 mg/kg, po qd for 15 days by microarray analysis relative to control; format: functional
[32] = test system: Rattus norvegicus; assay: Effect on NR1H2 gene expression in epididymal white adipose tissue of Zucker rat sub-chronic fa/fa prediabetic model at 10 mg/kg, po qd for 15 days by microarray analysis relative to control; format: functional
[33] = test system: Rattus norvegicus; assay: Effect on IL1RL1 gene expression in epididymal white adipose tissue of Zucker rat sub-chronic fa/fa prediabetic model at 10 mg/kg, po qd for 15 days by microarray analysis relative to control; format: functional
[34] = test system: Rattus norvegicus; assay: Effect on EIF2B3 gene expression in epididymal white adipose tissue of Zucker rat sub-chronic fa/fa prediabetic model at 10 mg/kg, po qd for 15 days by microarray analysis relative to control; format: functional
[35] = test system: Rattus norvegicus; assay: Effect on HLA-DRA gene expression in epididymal white adipose tissue of Zucker rat sub-chronic fa/fa prediabetic model at 10 mg/kg, po qd for 15 days by microarray analysis relative to control; format: functional
[36] = test system: Rattus norvegicus; assay: Effect on HLA-DMB gene expression in epididymal white adipose tissue of Zucker rat sub-chronic fa/fa prediabetic model at 10 mg/kg, po qd for 15 days by microarray analysis relative to control; format: functional

## CN1CC[C@@H](N2C(=O)S/C(=C\c3ccc4c(cnn4Cc4ccc(Cl)cc4C(F)(F)F)c3)C2=O)[C@H](F)C1
[1]
  Activity: 331.3 mg/dL
[2]
  IC50: > 10 µM
[3]
  IC50: > 10 µM
[4]
  half-life: 11.8 h
[5]
  Cmax: 683 ng/mL
[6]
  AUC(0-t) at 24 h: 14600 ng·h/mL
[7]
  Activity: 16701 mg·min/dL
[8]
  Cmax: 1570 ng/mL
[9]
  Cmax: 8380 ng/mL
[10]
  Activity: 525 g
[11]
  Activity: 551 g
[12]
  Activity: 20.6 g
[13]
  Activity: 93 mg
[14]
  Activity: 80.1 µg
[15]
  Activity: 117 U/L
[16]
  Activity: 158 U/L
[17]
  Activity: 11.1%
[18]
  Activity: 14.9%
[19]
  Activity: Dose-dependent effect
[20]
  Activity: 134 mg/dL
[21]
  Activity: 5%
[22]
  Activity: 28.7 mg/dL
[23]
  Activity: Dose-dependent effect
[24]
  Activity: Active
[25]
  fold change (FC): 1.453
[26]
  fold change (FC): -1.24
[27]
  fold change (FC): 1.803
[28]
  fold change (FC): -1.52
[29]
  fold change (FC): 1.548
[30]
  fold change (FC): 1.339
[31]
  fold change (FC): -1.209
[32]
  fold change (FC): -1.407
[33]
  fold change (FC): -2.752
[34]
  fold change (FC): 1.203
[35]
  fold change (FC): -1.201
[36]
  fold change (FC): -1.288

Reference: ChEMBL document CHEMBL4130359, “Indazole-based ligands for estrogen-related receptor α as potential anti-diabetic agents” (Eur J Med Chem, 2017)
